pIC50: −log10 of the molar value. Some results are limits rather than exact numbers.

These results are taken from ChEMBL document CHEMBL5727982, “Inhibitors of cyclin-dependent kinase 7 (CDK7)” (2020).

This experiment addresses Cyclin-dependent kinase 7/ cyclin H (Homo sapiens, UniProt P50613). The experiment is described as follows: In Vitro Kinase Assay: In vitro kinase assays with immunoprecipitated proteins (or recombinant CAK complexes) were performed as follows. Kinase reactions were performed in 25 μL of final volume of reaction buffer (50 mM Hepes, pH 7.5, 150 mM NaCl, 10 mM MgCl2, 5% glycerol, 25 μM ATP, and 10 μCi of [γ-32P]ATP). Each reaction contained 1 μg of RNAP II. Incubation was at 30° C. for 30-45 min. Reactions were terminated by addition of 5 μL of 5×SDS-PAGE sample buffer and incubated at 95° C. for 5 min. Reactions were analyzed by SDS-PAGE, and the dried gel was exposed to film or PhosphorImager plate. Type of experiment: protein-complex assay.

Cyclin-dependent kinase 7/ cyclin H, sequence (P51946 whole entry): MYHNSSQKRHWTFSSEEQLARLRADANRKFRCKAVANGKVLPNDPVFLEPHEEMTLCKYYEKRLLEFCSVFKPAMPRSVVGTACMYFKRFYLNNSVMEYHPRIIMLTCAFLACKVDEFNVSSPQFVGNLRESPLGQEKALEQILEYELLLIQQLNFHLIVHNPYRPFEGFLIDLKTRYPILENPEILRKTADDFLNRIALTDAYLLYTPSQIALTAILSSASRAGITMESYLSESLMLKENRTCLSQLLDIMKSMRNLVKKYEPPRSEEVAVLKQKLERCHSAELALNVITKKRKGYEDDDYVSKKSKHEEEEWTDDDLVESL
Cyclin-dependent kinase 7/ cyclin H, sequence (P50613 whole entry): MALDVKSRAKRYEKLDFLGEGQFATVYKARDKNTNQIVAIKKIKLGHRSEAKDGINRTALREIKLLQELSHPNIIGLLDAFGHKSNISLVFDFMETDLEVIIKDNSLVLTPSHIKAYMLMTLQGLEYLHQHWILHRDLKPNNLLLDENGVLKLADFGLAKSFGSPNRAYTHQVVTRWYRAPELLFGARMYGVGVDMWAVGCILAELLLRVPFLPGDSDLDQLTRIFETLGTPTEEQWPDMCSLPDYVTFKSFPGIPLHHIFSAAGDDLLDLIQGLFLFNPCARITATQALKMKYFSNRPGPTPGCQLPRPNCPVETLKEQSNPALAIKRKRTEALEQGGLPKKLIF

`CN(C)C/C=C/C(=O)Nc1ccc(S(=O)(=O)Nc2cccc(Nc3ncc(Cl)c(-c4c[nH]c5ccccc45)n3)c2)cc1`: the pIC50 was over 7.00.

The pIC50 is −log10 of the IC50, conventionally taken in molar units.
